{"source": "patent US8765422B2", "about": "“D4 desaturases and D5 elongases” (priority 2007, dated 2014)", "key": {"[1]": {"system": "Δ4-desaturase from Thraustochytrium ONC-T18", "test": "Δ4-desaturase (clone pYDes) expressed in Saccharomyces cerevisiae INVSc1, fed free fatty acid substrate, percent conversion by FAME GC", "format": "cell-based, Thraustochytrium sp. ONC-T18", "details": "for increase With 0.01% ferric citrate: conversion with 0.01% ferric citrate versus without; for % conversion average, vector pYDes: pYDes in INVSc1, 500 μM substrate, GC-FID of FAMEs; for % conversion average, vector pYDes / % conversion With 0.01% ferric citrate: 96 hours at 20° C.; for % conversion average (substrate to product) / % conversion With 0.01% ferric citrate: pYDes in yeast; for % conversion average (substrate to product): 500 μM free fatty acid substrate, 20° C., (product)/(substrate+product)*100; for % conversion With 0.01% ferric citrate: 500 μM substrate", "description": "(§1) The activity and specificity of the D4-desaturase and D5 elongase were determined using the yeast expression system. The transformed yeast was grown in SC-U medium containing 2% glucose, 1% Tergitol NP-40 for 48 hrs, 150 RPM at 30° C. A substrate medium was prepared containing SC-U, 2% galactose, 1% raffinose, 1% Tergitol NP-40 and 500 μM specific free fatty acid. The transformed yeast culture was inoculated into 100 ml substrate medium at an OD600 of 0.5 and cultures incubated at 20° C. for 5 days. The biomass was recovered by centrifugation at 2000 RPM for 5 min, washed once with 100 mM phosphate buffer (pH 7.0), then freeze dried. Fatty acid methyl ester gas chromatography was subsequently carried out to determine the efficiency of fatty acid desaturation and elongation. The percent conversion of the substrate was determined by calculating (product)/(substrate+product)*100.\nClone pYDes, which consisted of the full length Δ4-desaturase cloned into pYES2 (Invitrogen, Carlsbad, Calif.), and clone pYElo, which consisted of the full-length Δ5-elongase gene in pYES2, were transformed into competent Saccharomyces cerevisiae INVSc1. Yeast transformation was carried out using the S. c. EasyComp Transformation kit (Invitrogen, Carlsbad, Calif.) according to conditions specified by the manufacturer. Transformants were selected for uracil auxotrophy on media lacking uracil (SC-Ura). To detect the specific desaturase activity of these clones, transformants were grown in the presence of 500 μM specific fatty acid substrates as listed below: A) Docosapentaenoic acid (22:5n-3) (conversion to docosahexaenoic acid would indicate Δ4-desaturase activity), B) Docosatetraenoic acid (22:4n-6) (conversion to docosapentaenoic acid (22:5n-6) would indicate Δ4-desaturase activity), C) Dihomo-gamma-linolenic acid (20:3n-6) (conversion to arachidonic acid (20:4n-6) would indicate Δ5-desaturase activity), D) Eicosapentaenoic acid (20:5n-3) (conversion to docosapentaenoic acid (22:5n-3) would indicate Δ5-elongase activity), E) Arachidonic acid (20:4n-6) (conversion to docosatetraenoic acid (22:4n-6) would indicate Δ5-elongase activity)\nThe negative control strain was INVSc1 containing the unaltered pYES2 vector, and these were grown simultaneously. The cultures were vigorously agitated (150 rpm) and grown for 96 hours at 20° C. in the presence of 500 μM (final concentration) of the various substrates. The cells were pelleted and washed in 100 mM phosphate buffer, pH 7.0, cell pellets were freeze dried. The lipids were then extracted and derivitized to fatty acid methyl esters (FAME) for gas chromatography analysis (GC). Transesterification and extraction was done using 100 mg freeze dried cells, with C19:0 as internal standard, added transesterification reaction mix (methanol: hydrochloric acid: chloroform, 10:1:1) mixed and heated at 90° C. for 2 hours, then allowed to cool at room temperature. FAMEs were extracted by adding 1 ml water, and 2 ml hexane: chloroform (4:1), and allow organic and aqueous phases to separate. The organic layer was extracted and treated with 0.5 g of anhydrous sodium sulfate to remove particulates and residual water. The organic solvents were evaporated under a stream of argon. The FAMEs were resuspended in iso-octane and analysed by GC-FID. The percent conversion was calculated by dividing the product produced by the sum of (the product produced+the substrate added) and then multiplying by 100.\nClone pYDes, which consisted of the full length Δ4-desaturase cloned into pYES2 (Invitrogen, Carlsbad, Calif.), was transformed into competent Saccharomyces cerevisiae INVSc1. The negative control strain was INVSc1 containing the unaltered pYES2 vector, and these were grown simultaneously."}, "[2]": {"system": "Δ5-elongase from Thraustochytrium ONC-T18", "test": "Δ5-elongase (clone pYElo) expressed in Saccharomyces cerevisiae INVSc1, fed free fatty acid substrate, percent conversion by FAME GC", "format": "cell-based, Thraustochytrium sp. ONC-T18", "details": "pYElo in yeast", "description": "as §1, with “(product)/(substrate+product)*100. […]” for “(product)/(substrate+product)*100.”\nThe negative control strain was INVSc1 containing the unaltered pYES2 vector, and these were grown simultaneously. […] The FAMEs were resuspended in iso-octane and analysed by GC-FID. The percent conversion was calculated by dividing the product produced by the sum of (the product produced+the substrate added) and then multiplying by 100. […]"}}, "note": "Where “and” joins values, the source holds several entries; their conditions need not be identical. Equal entries are not always repeated.", "data": [{"smiles": "CC/C=C\\C/C=C\\C/C=C\\C/C=C\\C/C=C\\CCCCCC(=O)O", "note": "[DPA, Docosapentaenoic acid (22:5n-3)]", "values": [{"measurement": "increase With 0.01% ferric citrate", "setting": "[1]", "result": 2.75, "unit": "fold"}, {"measurement": "% conversion average, vector pYDes", "setting": "[1]", "result": 14, "unit": "%"}, {"measurement": "% conversion average, vector pYDes", "setting": "[1]; listed as C22:5 n-3", "result": 14.04, "unit": "%"}, {"measurement": "% conversion average (substrate to product)", "setting": "[1]", "result": 14.04, "unit": "%"}, {"measurement": "% conversion average (substrate to product)", "setting": "[1]; listed as DPA n-3", "result": 14, "unit": "%"}, {"measurement": "% conversion With 0.01% ferric citrate", "setting": "[1]", "result": 38.70, "unit": "%"}, {"measurement": "DPA to DHA conversion on addition of ferric citrate to the media", "setting": "[1]; pYDes, trace metal ferric citrate added", "result": "increase"}]}, {"smiles": "CCCCC/C=C\\C/C=C\\C/C=C\\C/C=C\\CCCC(=O)O", "note": "[ARA, Arachidonic acid (20:4n-6)]", "values": [{"measurement": "conversion of substrate by pYElo", "setting": "[2]", "result": "minimal conversion"}]}, {"smiles": "CCCCC/C=C\\C/C=C\\C/C=C\\C/C=C\\CCCCCC(=O)O", "note": "[DTA, Docosatetraenoic acid (22:4n-6)]", "values": [{"measurement": "increase With 0.01% ferric citrate", "setting": "[1]", "result": 2.43, "unit": "fold"}, {"measurement": "% conversion average, vector pYDes", "setting": "[1]", "result": 14, "unit": "%"}, {"measurement": "% conversion average, vector pYDes", "setting": "[1]; listed as C22:4 n-6", "result": 13.76, "unit": "%"}, {"measurement": "% conversion average (substrate to product)", "setting": "[1]", "result": "14% and 13.76%"}, {"measurement": "% conversion With 0.01% ferric citrate", "setting": "[1]", "result": 33.43, "unit": "%"}]}, {"smiles": "CCCCC/C=C\\C/C=C\\C/C=C\\CCCCCCC(=O)O", "note": "[DGLA, Dihomo-gamma-linolenic acid (20:3n-6)]", "values": [{"measurement": "% conversion average, vector pYDes", "setting": "[1]", "result": 0.87, "unit": "%"}]}, {"smiles": "CC/C=C\\C/C=C\\C/C=C\\C/C=C\\C/C=C\\CCCC(=O)O", "note": "[EPA, Eicosapentaenoic acid (20:5n-3)]", "values": [{"measurement": "conversion of substrate by pYElo", "setting": "[2]", "result": "minimal conversion"}]}]}
